# According to patent publication US20110300110A1, “ENAMINOCARBONYL COMPOUND/BENEFICIAL ORGANISM COMBINATIONS” (BAYER CROPSCIENCE AG, priority 2008, published 2011):
# Experiments:
# Format in all cases: in vivo
# [1] = system: Coccinella septempunctata L2 larvae; test: Larvae treatment Coccinella: kill of beneficial species larvae on Savoy cabbage
# Experimental: (§1) Foliar treatment is carried out using compound (I-5) in a concentration of 75 g of active compound per hectare.
# (§2) Drench treatment is carried out using compound (I-5) in a concentration of 10 mg of active compound per plant.
# (§3) Foliar treatment with Karate Zeon CS100 as toxic control was carried out in a concentration of 12.5 g of active compound per hectare.
# (§4) Beneficial species: Coccinella septempunctata L2 larvae Pest: Myzus persicae
# (§5) Each experiment is carried out in 3 repetitions with in each case 2 pot cages with in each case 5 larvae.
# (§6) For the experiment, Savoy cabbage plants are grown in pots having a diameter of 14 cm, placed in a breeding cage and infested thoroughly with Myzus persicae. Per experiment, 6 pots having a well-established aphid population are selected and the aphids are rated by estimation of their number. The plants are treated with the active compound solution of the appropriate concentration.
# (§7) After the spray coating has dried on, a quartz sand layer of a thickness of about 1 cm is applied to the soil in the pot, and the pot cage is put over the plant. In each case 5 Coccinella larvae are then counted out, and in each case 5 specimen are added to the plants in the pot cage.
# (§8) For each plant, at the beginning the Myzus persicae number is estimated at the appropriate points in time and the dead, dying and alive larvae are counted separately. All larvae, i.e. all larvae present on the plant and the surface of the quartz sand base, are counted.
# [2] = system: adult Nesidiocoris tenuis; test: Residual test with adult Nesidiocoris tenuis on tomato leaves
# Experimental: Foliar treatment is carried out using compound (I-5) in a concentration of 150 g of active compound per hectare.
# as §2
# Foliar treatment with Karate Zeon CS100 as toxic control was carried out in a concentration of 12.5 g of active compound per hectare. The active compound in its respective formulation is brought to the required concentration by dilution with water.
# Tomato plants cultivated in a greenhouse are treated with the respective active compound solutions. 1, 8, 15 and 22 days after the application, leaves are plucked from the test plants (5 samples per plot). The individual leaves are then mounted in test cages. 10 adult Nesidiocoris tenuis are added to each cage. The test cages are placed under controlled conditions in a climatized chamber. The kill of the insects is determined after 24, 48 and 72 hours of exposure.
# [3] = system: Myzus persicae; test: Larvae treatment Coccinella: infestation by Myzus persicae on Savoy cabbage; conditions: Coccinella larvae added
# Experimental: as §1, §2, §3, §4, §5, §6, §7, §8
# [4] = system: Episyrphus balteatus larvae; test: Larvae treatment Episyrphus: kill of beneficial species larvae on Savoy cabbage
# Experimental: as §1, §2, §3
# (§9) Beneficial species: Episyrphus balteatus larvae Pest: Myzus persicae
# (§10) Per experiment, 3 repetitions with in each case 2 pot cages with in each case 5 larvae are carried out.
# (§11) For the experiment, Savoy cabbage plants are grown in pots having a diameter of 14 cm, placed in a breeding cage and infested thoroughly with Myzus persicae.
# (§12) After the spray coating has dried on, a quartz sand layer of a thickness of about 1 cm is applied to the soil in the pot, and the pot cage is put over the plant. In each case 5 Episyrphus larvae are then counted out, and in each case 5 specimen are added to the plants in the pot cage.
# as §8
# [5] = system: Metopolophium dirhodum; test: Treatment Anthocoris adult: infestation by Metopolophium dirhodum on maize; conditions: Anthocoris adults added
# Experimental: as §1, §2, §3
# (§13) Beneficial species: Anthocoris nemoralis adults Pest: Metopolophium dirhodum
# (§14) Per experiment, 3 repetitions with in each case 2 pot cages with in each case 5 adults are carried out.
# as §6, with “maize” for “Savoy cabbage”, “Metopolophium dirhodum.” for “Myzus persicae.”
# (§15) After the spray coating has dried on, a quartz sand layer of a thickness of about 1 cm is applied to the soil in the pot, and the pot cage is put over the plant.
# (§16) In each case 5 Anthocoris adults are then counted out, and in each case 5 specimen are added to the plants in the pot cage.
# (§17) For each plant, at the beginning the Metopolophium dirhodum number is estimated at the appropriate points in time and the dead, dying and alive adults are counted separately. All adults, i.e. all adults present on the plant and the surface of the quartz sand base, are counted.
# [6] = system: Myzus persicae; test: Larvae treatment Episyrphus: infestation by Myzus persicae on Savoy cabbage; conditions: Episyrphus larvae added
# Experimental: as §1, §2, §3, §9, §10, §11, §12, §8
# [7] = system: Myzus persicae; test: Larvae treatment Aphidoletes: infestation by Myzus persicae on Savoy cabbage; conditions: Savoy cabbage with Aphidoletes larvae
# Experimental: as §1, §2, §3
# Beneficial species: Aphidoletes aphidimyza larvae Pest: Myzus persicae
# Each experiment is carried out in 3 repetitions.
# Per plot, 6 Savoy cabbage plants are placed into a planting-out tray and infested with Myzus persicae. About 1 week later, with a well-established Myzus population, the Aphidoletes aphidimyza are added. The application is carried after about 2 weeks once sufficient L2 stage Aphidoletes larvae are present (at least 20 larvae per tray).
# In preparation for the application, the plants are reduced to 4 healthy green leaves.
# Immediately prior to the application, the Myzus population and the number of Aphidoletes larvae are rated. For the application, all 6 plants of a plot are placed onto the turntable, and the amount of spray liquor for 0.666 m^2 is applied while turning slowly. After the application, the trays are placed into the standard cages.
# For each plant, the number of Myzus persicae is estimated at the beginning at the appropriate points in time, and the larvae are counted accurately.
# [8] = system: Anthocoris nemoralis adults; test: Treatment Anthocoris adult: kill of beneficial species adults on maize
# Experimental: as §1, §2, §3, §13, §14
# as §6, with “maize” for “Savoy cabbage”, “Metopolophium dirhodum.” for “Myzus persicae.”
# as §15, §16, §17
# [9] = 0 days after application, drench 10 mg a.i./plant
# [10] = 0 days after application, foliar: (I-5) 75 g a.i./ha, Karate Zeon CS100 12.5 g a.i./ha
# [11] = 1 day after application, drench 10 mg a.i./plant
# [12] = 1 day after application, foliar: (I-5) 75 g a.i./ha, Karate Zeon CS100 12.5 g a.i./ha
# [13] = 3 days after application, drench 10 mg a.i./plant
# [14] = 3 days after application, foliar: (I-5) 75 g a.i./ha, Karate Zeon CS100 12.5 g a.i./ha
# [15] = 5 days after application, drench 10 mg a.i./plant
# [16] = 5 days after application, foliar: (I-5) 75 g a.i./ha, Karate Zeon CS100 12.5 g a.i./ha
# [17] = prior to application (baseline), drench 10 mg a.i./plant
# [18] = prior to application (baseline), foliar: (I-5) 75 g a.i./ha, Karate Zeon CS100 12.5 g a.i./ha
compound,measurement,setting,value
"O=C1C=C(N(Cc2ccc(Cl)nc2)CC(F)F)CO1 [compound (I-5), 4-{[(6-chloropyrid-3-yl)methyl](2,2-difluoroethyl)amino}furan-2(5H)-one]",kill of Coccinella septempunctata larvae [% Abbott],[1]; [9],0%
same,kill of Coccinella septempunctata larvae [% Abbott],[1]; [10],0%
same,kill of Coccinella septempunctata larvae [% Abbott],[1]; [11],1.7%
same,kill of Coccinella septempunctata larvae [% Abbott],[1]; [12],3.3%
same,kill of Coccinella septempunctata larvae [% Abbott],[1]; [13],1.7%
same,kill of Coccinella septempunctata larvae [% Abbott],[1]; [14],1.7%
same,kill of Coccinella septempunctata larvae [% Abbott],[1]; [15],3.4%
same,kill of Coccinella septempunctata larvae [% Abbott],[1]; [16],6.9%
same,Activity against adult Nesidiocoris tenuis on tomato [% kill according to Schneider-Orelli],"[2]; leaves plucked 1 day after application, drench 10 mg a.i./plant",4.9%
same,Activity against adult Nesidiocoris tenuis on tomato [% kill according to Schneider-Orelli],"[2]; leaves plucked 1 day after application, foliar: (I-5) 150 g a.i./ha, Karate Zeon CS100 12.5 g a.i./ha",91.1%
same,Activity against adult Nesidiocoris tenuis on tomato [% kill according to Schneider-Orelli],"[2]; leaves plucked 8 days after application, drench 10 mg a.i./plant",47.3%
same,Activity against adult Nesidiocoris tenuis on tomato [% kill according to Schneider-Orelli],"[2]; leaves plucked 8 days after application, foliar: (I-5) 150 g a.i./ha, Karate Zeon CS100 12.5 g a.i./ha",81.3%
same,Activity against adult Nesidiocoris tenuis on tomato [% kill according to Schneider-Orelli],"[2]; leaves plucked 15 days after application, drench 10 mg a.i./plant",24.4%
same,Activity against adult Nesidiocoris tenuis on tomato [% kill according to Schneider-Orelli],"[2]; leaves plucked 15 days after application, foliar: (I-5) 150 g a.i./ha, Karate Zeon CS100 12.5 g a.i./ha",32.1%
same,Activity against adult Nesidiocoris tenuis on tomato [% kill according to Schneider-Orelli],"[2]; leaves plucked 22 days after application, drench 10 mg a.i./plant",66%
same,Activity against adult Nesidiocoris tenuis on tomato [% kill according to Schneider-Orelli],"[2]; leaves plucked 22 days after application, foliar: (I-5) 150 g a.i./ha, Karate Zeon CS100 12.5 g a.i./ha",45.8%
same,Infestation by Myzus persicae (number per plant),[3]; [15],165 number per plant
same,Infestation by Myzus persicae (number per plant),[3]; [16],0 number per plant
same,Infestation by Myzus persicae (number per plant),[3]; [17],552 number per plant
same,Infestation by Myzus persicae (number per plant),[3]; [18],602 number per plant
same,kill of Episyrphus balteatus larvae [% Abbott],[4]; [9],0%
same,kill of Episyrphus balteatus larvae [% Abbott],[4]; [10],0%
same,kill of Episyrphus balteatus larvae [% Abbott],[4]; [11],10.3%
same,kill of Episyrphus balteatus larvae [% Abbott],[4]; [12],6.1%
same,kill of Episyrphus balteatus larvae [% Abbott],[4]; [13],10.3%
same,kill of Episyrphus balteatus larvae [% Abbott],[4]; [14],9%
same,kill of Episyrphus balteatus larvae [% Abbott],[4]; [15],0%
same,kill of Episyrphus balteatus larvae [% Abbott],[4]; [16],0%
same,Infestation by Metopolophium dirhodum (number per plant),[5]; [15],2.5 number per plant
same,Infestation by Metopolophium dirhodum (number per plant),[5]; [16],0 number per plant
same,Infestation by Metopolophium dirhodum (number per plant),[5]; drench 10 mg a.i./plant,85 number per plant
same,Infestation by Metopolophium dirhodum (number per plant),"[5]; foliar: (I-5) 75 g a.i./ha, Karate Zeon CS100 12.5 g a.i./ha",78 number per plant
same,Infestation by Myzus persicae (number per plant),[6]; [15],23 number per plant
same,Infestation by Myzus persicae (number per plant),[6]; [16],0 number per plant
same,Infestation by Myzus persicae (number per plant),[6]; [17],394 number per plant
same,Infestation by Myzus persicae (number per plant),[6]; [18],375 number per plant
same,Infestation by Myzus persicae (number per plant),[7]; [15],19.4 number per plant
same,Infestation by Myzus persicae (number per plant),[7]; [16],0 number per plant
same,Infestation by Myzus persicae (number per plant),[7]; [17],367 number per plant
same,Infestation by Myzus persicae (number per plant),[7]; [18],344 number per plant
same,kill of adult Anthocoris nemoralis [% Abbott],[8]; [9],0%
same,kill of adult Anthocoris nemoralis [% Abbott],[8]; [10],0%
same,kill of adult Anthocoris nemoralis [% Abbott],[8]; [11],0%
same,kill of adult Anthocoris nemoralis [% Abbott],[8]; [12],0%
same,kill of adult Anthocoris nemoralis [% Abbott],[8]; [13],1.7%
same,kill of adult Anthocoris nemoralis [% Abbott],[8]; [14],3.3%
same,kill of adult Anthocoris nemoralis [% Abbott],[8]; [15],3.3%
same,kill of adult Anthocoris nemoralis [% Abbott],[8]; [16],6.7%
